Source: paper PMC7481290, “Halogenation as a tool to tune antimicrobial activity of peptoids” (Scientific Reports, 2020)
≈ marks a conversion by molar mass, not a printed value. Non-standard residues stand in square brackets, D forms with d. Residues, ends and D or L forms follow the SMILES beside them. Gly(Nα-4-Cl-benzyl) = O=C(O)CNCc1ccc(Cl)cc1; N(4-F-Bzl)Gly = O=C(O)CNCc1ccc(F)cc1; NBzl(4-I)Gly = O=C(O)CNCc1ccc(I)cc1; Nphe = O=C(O)CNCc1ccccc1; Nlys = NCCCCNCC(=O)O

Assays:
[1] = system: Methicillin-resistant S. aureus USA 300; type: cell-based, Staphylococcus aureus; details: USA 300, 18 h
Procedure: (§1) Bacterial growth inhibition was determined by using broth microdilution according to the Clinical Laboratory Standards Institute[43]. The antibacterial activity of peptoids was tested against S. aureus ATCC 25923, ATCC29213, and methicillin resistant S. aureus USA 300, methicillin resistant S. epidermidis ATCC 51625, a biofilm producing methicillin resistant S. epidermidis ET-024[44], P. aeruginosa Pa01 (H103), and E. coli ATCC 25922. Bacteria, grown on agar plates for 18 h at 37 °C, were diluted to ∼1 × 10^8 CFU/mL in Mueller‐Hinton Broth II (MHB II). Twofold serial dilutions of peptoids in MHB II were inoculated with bacteria to achieve a final concentration of 5 × 10^5 CFU/mL in polypropylene 96 U‐well microtiter plates (Corning 3,897; ThermoFisher Scientific, Roskilde), followed by incubation at 37 °C in ambient air for 18 h. The MIC values were determined as the lowest concentration showing no visible bacterial growth. Experiments were performed twice (in technical triplicates) on 2 different days.

S. aureus ATCC 25923 = type: cell-based, Staphylococcus aureus; details: for Minimal inhibitory concentration SA^a: ATCC 25923, 18 h
Procedure: as §1

S. aureus ATCC 29213 = type: cell-based, Staphylococcus aureus; details: ATCC 29213, 18 h
Procedure: as §1

[2] = system: Methicillin-resistant S. epidermidis ATCC 51625; type: cell-based, Staphylococcus epidermidis; details: for MIC against MRSE: text b15, strain not named; for Minimal inhibitory concentration MRSE^e: ATCC 51625, 18 h
Procedure: as §1

[3] = system: Methicillin-resistant S. epidermidis ET-024; type: cell-based, Staphylococcus epidermidis; details: for Minimal inhibitory concentration MRSE^d: Methicillin-resistant ET-024, 18 h
Procedure: as §1

E. coli ATCC 25922 = type: cell-based, Escherichia coli; details: ATCC 25922, 18 h
Procedure: as §1

[4] = system: P. aeruginosa PA01 (H103); type: cell-based, Pseudomonas aeruginosa; details: H103, 18 h
Procedure: as §1

[5] = system: selected bacterial strains (S. aureus, S. epidermidis, E. coli, P. aeruginosa); type: cell-based
Procedure: All 36 peptoids were tested against seven bacterial strains: five Gram-positive (Staphylococcus aureus ATCC 25923 and ATCC 29213, methicillin-resistant Staphylococcus aureus USA 300, methicillin-resistant Staphylococcus epidermidis ET-024 and ATCC 51625) and two Gram-negative (Escherichia coli ATCC 25922, Pseudomonas aeruginosa PA01) (Table 1).
as §1

[6] = Critical aggregation concentration from SAXS fit analysis; type: physicochemical
Procedure: SAXS experiments of the 10-mer peptoids were performed at the automated BM29 bioSAXS beamline at the European Synchrotron Radiation Facility (ESRF) in Grenoble, France[45]. The data was obtained using an energy of 12.5 keV and a detector distance of 2.87 m, covering a q range ( q=4πsin(θ/2)/λ ), where θ is the scattering angle and λ is the X-ray wavelength) of about 0.0047 to 0.5 Å^−1. The data set was calibrated to an absolute intensity scale using water as a primary standard. 40 µL samples were run through a capillary using the flow mode of the automated sample changer. SAXS data was collected in ten successive frames of 0.5 s each to monitor radiation damage and the data reduction was done using the standard tool at BM29[47].
The SAXS experiments on the fully iodinated 6-, 8-, and 12-mers to determine the CAC of the compounds were performed using a Bruker NANOSTAR equipped with a microfocus X-ray source (IμS Cu, Incoatec, Germany) and a VÅNTEC-2000 detector. Raw scattering data was calibrated to absolute intensity scale using water as a primary standard and radially averaged in order to obtain the 1D scattered intensity profile as a function of the scattering vector, with a wavelength of 1.54 Å.
The modelling fit analysis of the scattering data is explained in detail in the supplementary information.

SMILES	critical aggregation concentration (CAC) [6] [mg/mL]	Minimal inhibitory concentration MRSA^c [1] [µg/mL]	Minimal inhibitory concentration SA^a (S. aureus ATCC 25923) [µg/mL]	Minimal inhibitory concentration SA^b (S. aureus ATCC 29213) [µg/mL]	MIC against MRSE ([2]; values match ATCC 51625) [µg/mL]	Minimal inhibitory concentration MRSE^d [3] [µg/mL]	Minimal inhibitory concentration EC^f (E. coli ATCC 25922) [µg/mL]	Minimal inhibitory concentration PA^g [4] [µg/mL]	antimicrobial potency against the selected bacterial strains, in words [5]	Minimal inhibitory concentration MRSE^e [2] [µg/mL]	fold increase of activity against MRSE ([3]; versus non-halogenated control of same length, values match ET-024) [fold]	fold increase of activity against S. aureus (S. aureus ATCC 25923; versus non-halogenated control of same length) [fold]	fold increase of activity against MRSE ([2]; versus non-halogenated control 1, values match ATCC 51625) [fold]
NCCCCNCC(=O)N(CC(=O)N(CCCCN)CC(=O)N(CC(=O)N(CCCCN)CC(=O)N(CC(N)=O)Cc1ccccc1)Cc1ccccc1)Cc1ccccc1 [Compound 1] (H-[Nlys][Nphe][Nlys][Nphe][Nlys][Nphe]-NH2)	–	> 512	> 512	> 512	512 (≈ 607 µM)	512 (≈ 607 µM)	> 512	> 512	inactive	–	–	–	–
NCCCCNCC(=O)N(CC(=O)N(CCCCN)CC(=O)N(CC(=O)N(CCCCN)CC(=O)N(CC(=O)N(CCCCN)CC(=O)N(CC(=O)N(CCCCN)CC(=O)N(CC(N)=O)Cc1ccc(F)cc1)Cc1ccc(F)cc1)Cc1ccc(F)cc1)Cc1ccc(F)cc1)Cc1ccc(F)cc1 [Compound 20] (H-[Nlys][N(4-F-Bzl)Gly][Nlys][N(4-F-Bzl)Gly][Nlys][N(4-F-Bzl)Gly][Nlys][N(4-F-Bzl)Gly][Nlys][N(4-F-Bzl)Gly]-NH2)	> 5	32 (≈ 21.6 µM)	64 (≈ 43.1 µM)	64 (≈ 43.1 µM)	–	4 (≈ 2.7 µM)	128 (≈ 86.3 µM)	256 (≈ 173 µM)	–	8 (≈ 5.39 µM)	–	–	–
NCCCCNCC(=O)N(CC(=O)N(CCCCN)CC(=O)N(CC(=O)N(CCCCN)CC(=O)N(CC(=O)N(CCCCN)CC(=O)N(CC(=O)N(CCCCN)CC(=O)N(CC(=O)N(CCCCN)CC(=O)N(CC(N)=O)Cc1ccccc1)Cc1ccccc1)Cc1ccccc1)Cc1ccccc1)Cc1ccccc1)Cc1ccccc1 [Compound 28] (H-[Nlys][Nphe][Nlys][Nphe][Nlys][Nphe][Nlys][Nphe][Nlys][Nphe][Nlys][Nphe]-NH2)	–	512 (≈ 307 µM)	> 512	512 (≈ 307 µM)	–	64 (≈ 38.3 µM)	128 (≈ 76.7 µM)	128 (≈ 76.7 µM)	inactive	32 (≈ 19.2 µM)	–	–	–
NCCCCNCC(=O)N(CC(=O)N(CCCCN)CC(=O)N(CC(=O)N(CCCCN)CC(=O)N(CC(=O)N(CCCCN)CC(=O)N(CC(N)=O)Cc1ccc(I)cc1)Cc1ccc(I)cc1)Cc1ccc(I)cc1)Cc1ccc(I)cc1 [Compound 14] (H-[Nlys][NBzl(4-I)Gly][Nlys][NBzl(4-I)Gly][Nlys][NBzl(4-I)Gly][Nlys][NBzl(4-I)Gly]-NH2)	1.4	4 (≈ 2.47 µM)	8 (≈ 4.93 µM)	16 (≈ 9.86 µM)	–	2 (≈ 1.23 µM)	64 (≈ 39.5 µM)	> 512	–	4 (≈ 2.47 µM)	128	–	–
NCCCCNCC(=O)N(CC(=O)N(CCCCN)CC(=O)N(CC(=O)N(CCCCN)CC(=O)N(CC(N)=O)Cc1ccc(I)cc1)Cc1ccc(I)cc1)Cc1ccc(I)cc1 [Compound 5] (H-[Nlys][NBzl(4-I)Gly][Nlys][NBzl(4-I)Gly][Nlys][NBzl(4-I)Gly]-NH2)	2.8	4 (≈ 3.28 µM)	8 (≈ 6.55 µM)	4 (≈ 3.28 µM)	2 (≈ 1.64 µM)	4 (≈ 3.28 µM)	64 (≈ 52.4 µM)	> 512	–	–	–	> 64	256

Second part, led by results:

critical aggregation concentration (CAC) [6] [mg/mL]	SMILES	Minimal inhibitory concentration MRSA^c [1] [µg/mL]	Minimal inhibitory concentration SA^a (S. aureus ATCC 25923) [µg/mL]	Minimal inhibitory concentration SA^b (S. aureus ATCC 29213) [µg/mL]	MIC against MRSE ([2]; values match ATCC 51625) [µg/mL]	Minimal inhibitory concentration MRSE^d [3] [µg/mL]	Minimal inhibitory concentration EC^f (E. coli ATCC 25922) [µg/mL]	Minimal inhibitory concentration PA^g [4] [µg/mL]	antimicrobial potency against the selected bacterial strains, in words [5]	Minimal inhibitory concentration MRSE^e [2] [µg/mL]	fold increase of activity against MRSE ([3]; versus non-halogenated control of same length, values match ET-024) [fold]	fold increase of activity against S. aureus (S. aureus ATCC 25923; versus non-halogenated control of same length) [fold]	fold increase of activity against MRSE ([2]; versus non-halogenated control 1, values match ATCC 51625) [fold]
> 5	NCCCCNCC(=O)N(CC(=O)N(CCCCN)CC(=O)N(CC(=O)N(CCCCN)CC(=O)N(CC(=O)N(CCCCN)CC(=O)N(CC(=O)N(CCCCN)CC(=O)N(CC(N)=O)Cc1ccc(Cl)cc1)Cc1ccc(Cl)cc1)Cc1ccc(Cl)cc1)Cc1ccc(Cl)cc1)Cc1ccc(Cl)cc1 [Compound 21] (H-[Nlys][Gly(Nα-4-Cl-benzyl)][Nlys][Gly(Nα-4-Cl-benzyl)][Nlys][Gly(Nα-4-Cl-benzyl)][Nlys][Gly(Nα-4-Cl-benzyl)][Nlys][Gly(Nα-4-Cl-benzyl)]-NH2)	2 (≈ 1.28 µM)	2 (≈ 1.28 µM)	2 (≈ 1.28 µM)	–	1 (≈ 0.639 µM)	64 (≈ 40.9 µM)	> 512	–	2 (≈ 1.28 µM)	–	–	–
> 5	NCCCCNCC(=O)N(CC(=O)N(CCCCN)CC(=O)N(CC(=O)N(CCCCN)CC(=O)N(CC(=O)N(CCCCN)CC(=O)N(CC(=O)N(CCCCN)CC(=O)N(CC(N)=O)Cc1ccc(I)cc1)Cc1ccccc1)Cc1ccc(I)cc1)Cc1ccccc1)Cc1ccc(I)cc1 [Compound 27] (H-[Nlys][NBzl(4-I)Gly][Nlys][Nphe][Nlys][NBzl(4-I)Gly][Nlys][Nphe][Nlys][NBzl(4-I)Gly]-NH2)	4 (≈ 2.26 µM)	4 (≈ 2.26 µM)	4 (≈ 2.26 µM)	–	2 (≈ 1.13 µM)	128 (≈ 72.3 µM)	> 512	–	1 (≈ 0.565 µM)	–	–	–
> 5	NCCCCNCC(=O)N(CC(=O)N(CCCCN)CC(=O)N(CC(=O)N(CCCCN)CC(=O)N(CC(=O)N(CCCCN)CC(=O)N(CC(=O)N(CCCCN)CC(=O)N(CC(N)=O)Cc1ccc(Cl)cc1)Cc1ccccc1)Cc1ccc(Cl)cc1)Cc1ccccc1)Cc1ccc(Cl)cc1 [Compound 25] (H-[Nlys][Gly(Nα-4-Cl-benzyl)][Nlys][Nphe][Nlys][Gly(Nα-4-Cl-benzyl)][Nlys][Nphe][Nlys][Gly(Nα-4-Cl-benzyl)]-NH2)	16 (≈ 10.7 µM)	8 (≈ 5.34 µM)	8 (≈ 5.34 µM)	–	2 (≈ 1.34 µM)	256 (≈ 171 µM)	512 (≈ 342 µM)	–	1 (≈ 0.668 µM)	–	–	–
> 5	NCCCCNCC(=O)N(CC(=O)N(CCCCN)CC(=O)N(CC(=O)N(CCCCN)CC(=O)N(CC(=O)N(CCCCN)CC(=O)N(CC(=O)N(CCCCN)CC(=O)N(CC(N)=O)Cc1ccc(F)cc1)Cc1ccccc1)Cc1ccc(F)cc1)Cc1ccccc1)Cc1ccc(F)cc1 [Compound 24] (H-[Nlys][N(4-F-Bzl)Gly][Nlys][Nphe][Nlys][N(4-F-Bzl)Gly][Nlys][Nphe][Nlys][N(4-F-Bzl)Gly]-NH2)	256 (≈ 177 µM)	512 (≈ 354 µM)	512 (≈ 354 µM)	–	4 (≈ 2.76 µM)	256 (≈ 177 µM)	512 (≈ 354 µM)	–	8 (≈ 5.53 µM)	–	–	–
